Reference: PubChem BioAssay (NCI)
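Test compounds were applied to cells in 96-well plates for 48 hours at 5 doses. TGI: concentration producing complete growth inhibition.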

How the values were obtained:
Assay in all cases: NCI-60 cell line screen, 48 h
786-0 renal = tested on: 786-0 renal
A498 renal = tested on: A498 renal
A549 NSCLC = tested on: A549 NSCLC
ACHN renal = tested on: ACHN renal
BT-549 breast = tested on: BT-549 breast
CAKI-1 renal = tested on: CAKI-1 renal
CCRF-CEM leukemia = tested on: CCRF-CEM leukemia
COLO 205 colon = tested on: COLO 205 colon
DU-145 prostate = tested on: DU-145 prostate
EKVX NSCLC = tested on: EKVX NSCLC
HCC-2998 colon = tested on: HCC-2998 colon
HCT-116 colon = tested on: HCT-116 colon
HCT-15 colon = tested on: HCT-15 colon
HL-60(TB) leukemia = tested on: HL-60(TB) leukemia
HOP-62 NSCLC = tested on: HOP-62 NSCLC
HOP-92 NSCLC = tested on: HOP-92 NSCLC
HS 578T breast = tested on: HS 578T breast
HT29 colon = tested on: HT29 colon
IGROV1 ovarian = tested on: IGROV1 ovarian
K-562 leukemia = tested on: K-562 leukemia
KM12 colon = tested on: KM12 colon
LOX IMVI melanoma = tested on: LOX IMVI melanoma
M14 melanoma = tested on: M14 melanoma
MALME-3M melanoma = tested on: MALME-3M melanoma
MCF7 breast = tested on: MCF7 breast
MDA-MB-231 breast = tested on: MDA-MB-231 breast
MDA-MB-435 = tested on: MDA-MB-435
MDA-N = tested on: MDA-N
MOLT-4 leukemia = tested on: MOLT-4 leukemia
NCI-H226 lung = tested on: NCI-H226 lung
NCI-H23 lung = tested on: NCI-H23 lung
NCI-H460 lung = tested on: NCI-H460 lung
NCI-H522 lung = tested on: NCI-H522 lung
NCI/ADR-RES ovarian = tested on: NCI/ADR-RES ovarian
OVCAR-3 ovarian = tested on: OVCAR-3 ovarian
OVCAR-4 ovarian = tested on: OVCAR-4 ovarian
OVCAR-5 ovarian = tested on: OVCAR-5 ovarian
OVCAR-8 ovarian = tested on: OVCAR-8 ovarian
PC-3 prostate = tested on: PC-3 prostate
RPMI-8226 leukemia = tested on: RPMI-8226 leukemia
RXF 393 renal = tested on: RXF 393 renal
SF-268 CNS = tested on: SF-268 CNS
SF-295 CNS = tested on: SF-295 CNS
SF-539 CNS = tested on: SF-539 CNS
SK-MEL-2 melanoma = tested on: SK-MEL-2 melanoma
SK-MEL-28 melanoma = tested on: SK-MEL-28 melanoma
SK-MEL-5 melanoma = tested on: SK-MEL-5 melanoma
SK-OV-3 ovarian = tested on: SK-OV-3 ovarian
SN12C renal = tested on: SN12C renal
SNB-19 CNS = tested on: SNB-19 CNS
SNB-75 CNS = tested on: SNB-75 CNS
SR leukemia = tested on: SR leukemia
SW-620 colon = tested on: SW-620 colon
T-47D breast = tested on: T-47D breast
TK-10 renal = tested on: TK-10 renal
U251 CNS = tested on: U251 CNS
UACC-257 melanoma = tested on: UACC-257 melanoma
UACC-62 melanoma = tested on: UACC-62 melanoma
UO-31 renal = tested on: UO-31 renal

Question: Which results are given for `COc1ccc2cc(CN3CCC(C4CCNCC4)CC3)ccc2c1`?
Answer: TGI (786-0 renal): 3 µM; TGI (A498 renal): 14.7 µM; TGI (A549 NSCLC): 36.8 µM; TGI (ACHN renal): 11.9 µM; TGI (BT-549 breast): 24.3 µM; TGI (CAKI-1 renal): 6.03 µM; TGI (CCRF-CEM leukemia): 12.7 µM; TGI (COLO 205 colon): 3.25 µM; TGI (DU-145 prostate): 15 µM; TGI (EKVX NSCLC): 21.2 µM; TGI (HCC-2998 colon): 1.41 µM; TGI (HCT-116 colon): 3.73 µM; TGI (HCT-15 colon): 6.44 µM; TGI (HL-60(TB) leukemia): 3.38 µM; TGI (HOP-62 NSCLC): 8.98 µM; TGI (HOP-92 NSCLC): 5.75 µM; TGI (HS 578T breast): > 30.5 µM; TGI (HT29 colon): 2.65 µM; TGI (IGROV1 ovarian): 15.2 µM; TGI (K-562 leukemia): 3.22 µM; TGI (KM12 colon): 5.25 µM; TGI (LOX IMVI melanoma): 2.94 µM; TGI (M14 melanoma): 3.15 µM; TGI (MALME-3M melanoma): 3.02 µM; TGI (MCF7 breast): 6.32 µM; TGI (MDA-MB-231 breast): 5.08 µM; TGI (MDA-MB-435): 3.58 µM; TGI (MDA-N): 4.19 µM; TGI (MOLT-4 leukemia): 4.84 µM; TGI (NCI-H226 lung): 29.2 µM; TGI (NCI-H23 lung): 33 µM; TGI (NCI-H460 lung): 4.4 µM; TGI (NCI-H522 lung): 4.54 µM; TGI (NCI/ADR-RES ovarian): 21 µM; TGI (OVCAR-3 ovarian): 15.8 µM; TGI (OVCAR-4 ovarian): 31.3 µM; TGI (OVCAR-5 ovarian): 20.4 µM; TGI (OVCAR-8 ovarian): 22.1 µM; TGI (PC-3 prostate): 28 µM; TGI (RPMI-8226 leukemia): 4.61 µM; TGI (RXF 393 renal): 5.19 µM; TGI (SF-268 CNS): > 22.3 µM; TGI (SF-295 CNS): 3.5 µM; TGI (SF-539 CNS): 4.03 µM; TGI (SK-MEL-2 melanoma): 3.81 µM; TGI (SK-MEL-28 melanoma): 3.27 µM; TGI (SK-MEL-5 melanoma): 3.1 µM; TGI (SK-OV-3 ovarian): 23.4 µM; TGI (SN12C renal): 23 µM; TGI (SNB-19 CNS): 18.3 µM; TGI (SNB-75 CNS): 5.95 µM; TGI (SR leukemia): 5.16 µM; TGI (SW-620 colon): 3.42 µM; TGI (T-47D breast): 5.23 µM; TGI (TK-10 renal): 21.3 µM; TGI (U251 CNS): 3.74 µM; TGI (UACC-257 melanoma): 3.47 µM; TGI (UACC-62 melanoma): 3.87 µM; TGI (UO-31 renal): 6.29 µM
